Results published in publication PMC7730206, “2-Deoxy-D-glucose Promotes Buforin IIb-Induced Cytotoxicity in Prostate Cancer DU145 Cells and Xenograft Tumors” (Molecules, 2020).
Entries after “also recorded” stand apart in the source; their conditions may differ.

Key:
DU145 cells [1] = assay: Annexin V-FITC/PI apoptosis flow cytometry; assay type: cell-based, human
Procedure: DU145 cells were seeded (3 × 10^5 cells/mL) into 6-well plates and treated with buforin IIb (2 μM) and 2-DG (2 mM) alone and in combination for 24 h. After collecting and washing with PBS, the cells were re-suspended in 500 μL of binding buffer, stained with FITC-conjugated Annexin V and PI, and incubated on ice in the dark for 10 min. The stained cells were analyzed by flow cytometry, and the percentage of apoptotic cells was calculated using Cell Quest software.

DU145 cells [2] = assay: ROS assay (H2DCFDA, flow cytometry); assay type: cell-based, human; conditions: 2 mM 2-DG 12 h, with or without 2 μM buforin IIb 6 h; combination compared with 2 μM buforin alone, p < 0.001
Procedure: Intracellular ROS level was measured by detecting the fluorescence intensity of the peroxide sensitive fluorescent probe H2DCFDA. Briefly, DU145 cells (1 × 10^5 cells/mL) were seeded into 24-well plates and treated with 2-DG (2 mM) for 12 h, then treated with or without buforin IIb (2 μM) for 6 h, followed by incubation with 10 μM H2DCFDA for 30 min in the dark. The fluorescence intensity was measured at 488 nm by flow cytometry to evaluate the production of ROS.

DU145 cells [3] = assay: Cell cycle analysis (PI staining, FACS); assay type: cell-based, human; conditions: 2-DG 2 mM, buforin IIb 2 μM, alone or in combination, 24 h; for S/G2 population: PBS control 46.23%; for G0/G1 population (%G1): PBS control 53.7%
Procedure: Cell cycle analysis was performed using the Cell Cycle Analysis Kit. Briefly, cells were seeded into 6-well culture plates at a density of 3 × 10^5 cells/mL. After treatment with 2-DG (2 mM) and buforin IIb (2 μM) alone or in combination for 24 h, cells were digested by 0.25% trypsin without EDTA, fixed in 70% cold ethanol for 5 h at 4 °C, and then stained with propidium iodide (PI) and RNase A solution for 30 min at 37 °C in the dark. The cell distribution across the cell cycle was analyzed with a FACS Vantage SE flow cytometer.

[4] = tested on: Bcl-2, Bak, Bax, cytochrome c, caspase 3 in DU145 cells; assay: Western blot of apoptosis-related proteins; assay type: cell-based, human; conditions: 2 mM 2-DG 12 h and/or 2 μM buforin IIb 12 h
Procedure: DU145 cells were treated with 2-DG (2 mM) for 12 h, then treated with or without buforin IIb (2 μM) for 12 h. The cells were lysed on ice for 30 min in RIPA lysis buffer, and the lysates were centrifuged at 12,000× g for 10 min at 4 °C. The supernatant was collected, separated by 12% sodium dodecyl sulfate-polyacrylamide gel electrophoresis (SDS-PAGE), and transferred onto a polyvinylidene difluoride (PVDF) membrane. After blocking with 5% skim milk in PBS, the PVDF membrane incubated with primary antibodies against Bcl-2, Bak, Bax, cytochrome C, caspase 3, and β-actin overnight at 4 °C, followed by incubating with appropriate secondary antibodies. After washing, bands were visualized by using ECL detection system according to the manufacturer’s instructions.

DU145 cells [5] = assay: Intracellular ATP level; assay type: cell-based, human; conditions: 2 μM buforin IIb 12 h
Procedure: (§1) Cells were seeded at approximately 3 × 10^5 cells/mL in 6-well plates and treated with 2-DG (2 mM) alone for 24 h and buforin IIb alone (2 μM) or both for 12 h. After centrifugation, the culture medium and cells were collected to estimate the L-lactate and ATP content using the ATP content assay kit (Solarbio, Beijing, China) and L-lactate assay kit (Jiancheng Bioengineering, Nanjing, China) according to the manufacturer’s protocol. […] The collected cells were subjected to ultrasonic disruption and centrifuged at 8000× g for 10 min at 4 °C to collect the supernatant for intracellular ATP detection. Creatine kinase catalyzes the production of phosphocreatine from creatine and ATP. The level of ATP was determined by detecting the phosphocreatine content though the colorimetric method of phosphomolybdic acid at 700 nm. Six replicates were performed for each group, and the experiments were repeated three times to confirm the results.

[6] = tested on: prostate cancer cell line DU145; assay: CCK-8 cell viability assay, DU145; assay type: cell-based, human
Procedure: (§2) Cells were seeded in 96-well plates at a density of 1 × 10^5 cells/mL in medium, and then treated with different concentrations of buforin IIb and 2-DG alone or in combination for 24 h. After treatment, 10 μL CCK-8 was added to each well, and the plates were incubated in the dark at 37 °C for 2 h. Absorbance at 450 nm was measured using a […]1 multifunction microplate reader. Each experiment was performed in triplicate, and cell viability was expressed as a percentage of the control. The drug-drug interactions between buforin IIb and 2-DG were evaluated using the combination index (CI) described by Chou and Talalay, and calculated using Compusyn software (Biosoft). CI values < 1, = 1 or > 1 indicated synergy, additivity, or antagonism, respectively.

DU145 cells [7] = assay: L-lactate production; assay type: cell-based, human; conditions: 2 mM 2-DG 24 h; 2 μM buforin IIb 12 h; combination: 2-DG pretreatment 12 h then buforin IIb 12 h; lactate in medium
Procedure: as §1

[8] = tested on: prostate cancer cell line DU145; conditions: 1 mM 2-DG alone; ref 28 (Sahra et al. 2010); cited from earlier work
From the text: Glycolysis inhibitors have been studied extensively in recent years as a group of compounds with a potential anticancer activity. This is associated with increasing knowledge of metabolic disorders in cancer cells. One difference between cancer cells and normal cells is that the metabolism of cancer cells is reprogrammed to generate energy from aerobic glycolysis instead of oxidative phosphorylation, which affects mitochondrial function. One effective anticancer strategy is to combine mitochondrial and antiglycolytic drugs with different molecular targets, which may elicit synergistic e ...

DU145 cells [9] = assay: EdU incorporation assay (cell proliferation); assay type: cell-based, human; conditions: buforin IIb 2 μM, alone or in combination, 24 h
Procedure: Cultured cells were plated in 12-well plates at a density of 2 × 10^5 cells/mL and treated with buforin IIb (2 μM) and 2-DG (2 mM) alone and in combination for 24 h. Cells were then incubated with in medium containing EdU (10 μM) for 2 h, fixed with 4% paraformaldehyde for 15 min, and permeabilized with 0.2% Triton X-100 for 15 min. Cells were then incubated with EdU staining cocktail at room temperature in the dark for 30 min. After washing with PBS, cell nuclei were stained with DAPI at a concentration of 10 μg/mL for 15 min. More than five images of each well were acquired by fluorescence microscope, and the percentage of EdU-positive cells was evaluated.

DU145 xenograft tumors = assay: DU145 xenograft tumor experiment; assay type: in vivo, BALB/c nude mice; conditions: buforin IIb 5 mg/kg tail vein, 2-DG 400 mg/kg oral gavage, days 1, 2, 3, 6, 9; tumor weight on day 12 vs PBS; n = 5 per group
From the text: Male BALB/c nude mice (4-6 weeks old) were obtained from the Model Animal Research Center of Nanjing University. All of the animal experiments were approved by the Institutional Animal Care and Use Committee (IACUC) of the Nanjing Normal University and Jiangsu Association for Laboratory Animal Science. BALB/c nude mice were subcutaneously injected with 3 × 10^6 DU145 cells in the right axillary region. When the tumor volume reached 75 mm^3, nude mice were randomly divided into the following four groups (n = 5 per group): PBS, buforin IIb (5 mg/kg), 2-DG (400 mg/kg), and combination group (5 mg/kg buforin IIb + 400 mg/kg 2-DG). Buforin IIb was injected through the tail vein of mice and 2-DG was administered via oral gavage on days 1, 2, 3, 6, and 9. Body weight and tumor volume were measured three times a week. Mice were sacrificed by isoflurane inhalation followed by cervical dislocation. The tumors were excised and assessed. Tumor volume was calculated using the formula V = ab^2/2, where 'a' and 'b' are the tumor dimensions at the longest and widest points, respectively. On day 12, tumor tissues were collected and weighed. […] PCNA and TUNEL positive cells were quantified by measuring pixels in 10 consecutive fields at 40× magnification. Positive cells were scored manually.

mouse erythrocytes = assay: Hemolytic activity assay; assay type: cell-based; conditions: mouse RBCs 4% (v/v), 30 min, 37 °C, absorbance 570 nm; different concentrations
Procedure: The hemolytic assay was conducted using mouse red blood cells (RBCs) as the method described previously. Briefly, erythrocytes were isolated by centrifugation at 1000× g for 10 min, washed three times with PBS, and resuspended at a final concentration of 4% (v/v). After incubating cells with 2-DG and buforin IIb alone or in combination at different concentrations for 30 min at 37 °C, the mixture was centrifuged at 1000× g for 5 min to obtain the supernatant. A volume of 100 μL of supernatant was removed to a new 96-well plate and the absorbance was measured at 570 nm. PBS and 0.1% Triton X-100 were used as agents for 0 and 100% hemolysis, respectively. The percentage of hemolysis was calculated as follows: (Asample − APBS)/(ATritonX-100 − APBS) × 100%, where A is the absorbance. Data are presented as the mean ± standard error of the mean (SEM) of at 4–6 independent experiments.

[10] = tested on: normal prostatic epithelial WPMY-1 cell line; assay: CCK-8 cell viability assay, WPMY-1; assay type: cell-based
Procedure: as §2

DU145 cells [11] = assay: Mitochondrial membrane potential (JC-1, flow cytometry); assay type: cell-based, human; conditions: for effect on Δψm (JC-1 green/red fluorescence ratio, words): 2 mM 2-DG, 2 μM buforin IIb 12 h
Procedure: The JC-1 Assay Kit was used to measure changes in mitochondrial membrane potential. Briefly, cells (5 × 10^5 cells/mL) were seeded into 6-well plates and treated with 2-DG (2 mM) for 12 h, then treated with or without buforin IIb (2 μM) for 12 h. DU145 cells were collected, washed in PBS, and incubated with 10 μg/mL JC-1 for 30 min. The cells were then collected by centrifugation and analyzed by flow cytometry. The red fluorescence indicated JC-1 aggregates, whereas green fluorescence indicated JC-1 monomers. Aggregated JC-1 (red fluorescence) indicates a high membrane potential, whereas monomer JC-1 (green fluorescence) indicates a membrane collapse.

O=CC[C@@H](O)[C@H](O)[C@H](O)CO [2-DG, 2-Deoxy-D-glucose]
induction of apoptosis (DU145 cells [1]; 2-DG alone (2 mM) compared with PBS control): did not induce DU145 cell apoptosis
ROS, H2DCFDA fluorescence intensity (DU145 cells [2]): no effect on H2DCFDA fluorescence intensity
%G2 (DU145 cells [3]; PBS 8.15): 7.2%
%S (DU145 cells [3]; PBS 38.08): 28.05%
S/G2 population (DU145 cells [3]): 35.25%
G0/G1 population (%G1) (DU145 cells [3]): 64.76%
Bcl-2 family protein levels [4]: downregulated Bcl-2 and upregulated Bak
cytochrome c and caspase 3 [4]: did not promote the release of cytochrome c from mitochondria or activate caspase 3
activity at 2000 µM (DU145 cells [5]; Homo sapiens, DU-145, 2 mM 2-DG 24 h, read-out: ATP levels, % of control levels): 70%
effect on DU145 cell viability / growth ([6]; 2 mM 2-DG alone): did not inhibit DU145 cell growth significantly; also recorded: no significant effect on cell viability and apoptosis
IC50 ([6]; Homo sapiens, DU-145, CCK8 assay, 24 h, data not shown): 12 mM
lactate production, % of that in the control (DU145 cells [7]): approximately 60%
effect on cell viability and apoptosis in DU145 cells [8]: almost no effect on cell viability and apoptosis
inhibition at 2000 µM (DU145 cells [9]; Homo sapiens, DU-145, 2-DG 2 mM, read-out: inhibition of cell proliferation (rate)): 14%
tumor growth inhibition rate (DU145 xenograft tumors): 39.53%
hemolytic activity (mouse erythrocytes): no hemolytic activity
cytotoxicity against WPMY-1 cells ([10]; 2 mM 2-DG and 2 μM buforin IIb alone or in combination): no significant cytotoxicity
inhibition of viability of WPMY-1 cells ([10]; 4 mM 2-DG and 4 μM buforin IIb alone or in combination): No significant inhibition of viability
effect on viability of WPMY-1 cells ([10]; all tested concentrations): no effect on the viability
effect on Δψm (JC-1 green/red fluorescence ratio, words) (DU145 cells [11]): no effect on Δψm
effect on mitochondrial Δψm and ROS production (DU145 cells [11]; 2-DG (2 mM) alone): no effect on mitochondrial Δψm and ROS production

Buforin IIb
apoptosis (DU145 cells [1]; 2 μM buforin IIb alone or with 2 mM 2-DG, 24 h, Annexin V/PI FACS): 21.45%
S/G2 population (DU145 cells [3]): 30.06%
G0/G1 population (%G1) (DU145 cells [3]): 69.94%
Bcl-2 family protein levels [4]: downregulated Bcl-2 and upregulated Bak
cytochrome c and caspase 3 [4]: increased cytochrome c levels and induced the cleavage of procaspase 3
ATP levels, % of control levels (DU145 cells [5]; 2 mM 2-DG 24 h): 30%
inhibition of DU145 cell viability ([6]; 2 μM buforin IIb alone or with 2 mM 2-DG, 24 h, CCK-8): 25%
lactate production, % of that in the control (DU145 cells [7]): ~80%
inhibition of cell proliferation (rate) (DU145 cells [9]; 2-DG 2 mM): 53%
effect on Δψm (JC-1 green/red fluorescence ratio, words) (DU145 cells [11]): increased the green/red fluorescence ratio
